Test results reported in paper PMC9081605, “A High-Throughput Toxicity Screen of 42 Per- and Polyfluoroalkyl Substances (PFAS) and Functional Assessment of Migration and Gene Expression in Human Placental Trophoblast Cells” (Frontiers in Toxicology, 2022).

Test system: JEG-3 cells
Assay: Gene expression, custom NanoString code set of 46 genes
Format: cell-based, human
Method: JEG-3 cells were seeded at a density of 80,000 cells per well in six well plates and allowed to adhere overnight (24 h). The following day, media was removed and replaced with exposure media, then returned to the incubator for 24 h. The test compounds included non-cytotoxic concentrations of PFOA (0, 1, and 100 µM) and GenX (0, 3, 300 µM). These test compounds were selected a priori due to their high public health relevance. Each 6 well plate contained the three concentrations for either PFOA or GenX, with each condition in technical duplicate. Plates containing these PFOA or GenX exposure conditions were replicated three times (N = 3). After 24 h, exposure media was aspirated and cells were washed in ice cold 1xPBS, which was then aspirated. Each well received 500 µl of TRIzol reagent (Thermo Fisher Scientific, MA, United States) and cells were harvested in the TRIzol using a cell scraper. Technical duplicate wells within a plate were combined to generate a single sample of ∼1,000 µl. RNA was isolated from the resulting cellular homogenate using RNeasy Mini Kits (Qiagen, Hilden, Germany). Isolated RNA quality was validated and concentration determined using a NanoDrop 2000 (Thermo Fisher Scientific, MA, United States). 100 ng of mRNA from each sample was then analyzed using a custom gene expression code set (NanoString, Seattle, WA, United States). The custom code set included 46 genes selected for their downstream involvement in placental development (e.g., WNT4), endocrine signaling (e.g., CYP19A1), fetal growth/nutrient sensing (e.g., IGF2), inflammation (e.g., IL6), oxidative stress (e.g., SOD1, GPX1), and xenobiotic transport/metabolism (e.g., ABCG2, MRP3).
Gene expression data were quantified using the nCounter Digital Analyzer (NanoString, Seattle, WA, United States) and raw and adjusted counts were generated with nSolver (v4.0) software (NanoString, Seattle, WA, United States). Data were adjusted utilizing the manufacturer’s positive and negative experimental control probes, as well as housekeeping genes (ACTA2, ACTB, B2M, LDHA, RNA18S5, and ROLYR2L). All samples passed nSolver’s initial QA/QC controls and replicates were very well correlated with R ^2 values greater than 0.99. Adjusted data were then imported into Partek v7.0 (St. Louis, MO, United States), log2 transformed and quantile normalized for further QA/QC and statistical analyses. Genes with mRNA counts below the detection threshold of 20 were removed due to suboptimal probe hybridization (N = 2 genes for GenX; GH2 and IGFBP5). Fold change values were analyzed by ANOVA with post hoc false discovery rate adjustment (FDR) of p < 0.1. Normalized gene expression values were visualized using pheatmap with Euclidean clustering of genes and concentration groups ([Kolde and Kolde, 2015]).

N.O=C(O)C(F)(OC(F)(F)C(F)(F)C(F)(F)F)C(F)(F)F (centres unmarked) [Ammonium perfluoro-2-methyl-3-oxahexanoate]
11BHSD2 gene expression, fold change over untreated control (3 µM, 24 h): -1.00 | 17BHSD1 gene expression, fold change over untreated control (3 µM, 24 h): -1.11 | AHR gene expression, fold change over untreated control (3 µM, 24 h): 1.04 | AHRR gene expression, fold change over untreated control (3 µM, 24 h): 1.18 | CAT gene expression, fold change over untreated control (3 µM, 24 h): 1.02 | CGB5 gene expression, fold change over untreated control (3 µM, 24 h): 1.08 | COX2 gene expression, fold change over untreated control (3 µM, 24 h): 1.27 | CTNNB1 gene expression, fold change over untreated control (3 µM, 24 h): 1.00 | CYP1A1 gene expression, fold change over untreated control (3 µM, 24 h): -1.22 | CYP2E1 gene expression, fold change over untreated control (3 µM, 24 h): -1.26 | CYP3A5 gene expression, fold change over untreated control (3 µM, 24 h): 1.19 | CYP3A7 gene expression, fold change over untreated control (3 µM, 24 h): 1.01 | CYP19A1 gene expression, fold change over untreated control (3 µM, 24 h): -1.03 | EGFR gene expression, fold change over untreated control (3 µM, 24 h): 1.00 | ENG gene expression, fold change over untreated control (3 µM, 24 h): 1.04 | ESRRA gene expression, fold change over untreated control (3 µM, 24 h): 1.00 | ESRRG gene expression, fold change over untreated control (3 µM, 24 h): -1.16 | GHR gene expression, fold change over untreated control (3 µM, 24 h): 1.15 | GPER1 gene expression, fold change over untreated control (3 µM, 24 h): -1.02 | HIF1A gene expression, fold change over untreated control (3 µM, 24 h): 1.00 | IGF2 gene expression, fold change over untreated control (3 µM, 24 h): 1.00 | IGFR1 gene expression, fold change over untreated control (3 µM, 24 h): -1.02 | IGFR2 gene expression, fold change over untreated control (3 µM, 24 h): 1.04 | IL6 gene expression, fold change over untreated control (3 µM, 24 h): -1.23 | MRP1 gene expression, fold change over untreated control (3 µM, 24 h): -1.05 | MRP2 gene expression, fold change over untreated control (3 µM, 24 h): 1.05 | MRP3 gene expression, fold change over untreated control (3 µM, 24 h): 1.07 | NFKB1 gene expression, fold change over untreated control (3 µM, 24 h): 1.03 | NFKB2 gene expression, fold change over untreated control (3 µM, 24 h): -1.07 | NR3C1 gene expression, fold change over untreated control (3 µM, 24 h): 1.00 | PGF gene expression, fold change over untreated control (3 µM, 24 h): 1.00 | PMM1 gene expression, fold change over untreated control (3 µM, 24 h): -1.05 | ROLYR2L gene expression, fold change over untreated control (3 µM, 24 h): 1.00 | SLC2A1 gene expression, fold change over untreated control (3 µM, 24 h): -1.04 | SOD1 gene expression, fold change over untreated control (3 µM, 24 h): 1.00 | TGFB1 gene expression, fold change over untreated control (3 µM, 24 h): -1.04 | VEGFA gene expression, fold change over untreated control (3 µM, 24 h): 1.04 | VEGFB gene expression, fold change over untreated control (3 µM, 24 h): 1.00 | WNT4 gene expression, fold change over untreated control (3 µM, 24 h): 1.08 | WNT6 gene expression, fold change over untreated control (3 µM, 24 h): -1.09 | WNT7B gene expression, fold change over untreated control (3 µM, 24 h): 1.07 | mTOR gene expression, fold change over untreated control (3 µM, 24 h): 1.00 | 11BHSD2 gene expression, fold change over untreated control (300 µM, 24 h): -1.01 | AHR gene expression, fold change over untreated control (300 µM, 24 h): -1.04 | AHRR gene expression, fold change over untreated control (300 µM, 24 h): 1.19 | CAT gene expression, fold change over untreated control (300 µM, 24 h): -1.05 | CGB5 gene expression, fold change over untreated control (300 µM, 24 h): 1.11 | COX2 gene expression, fold change over untreated control (300 µM, 24 h): 1.27 | CYP1A1 gene expression, fold change over untreated control (300 µM, 24 h): -1.16 | CYP2E1 gene expression, fold change over untreated control (300 µM, 24 h): 1.04 | CYP3A5 gene expression, fold change over untreated control (300 µM, 24 h): -1.83 | CYP3A7 gene expression, fold change over untreated control (300 µM, 24 h): -1.25 | CYP19A1 gene expression, fold change over untreated control (300 µM, 24 h): -1.29 | ENG gene expression, fold change over untreated control (300 µM, 24 h): -1.04 | ESRRA gene expression, fold change over untreated control (300 µM, 24 h): 1.19 | ESRRG gene expression, fold change over untreated control (300 µM, 24 h): 1.00 | GHR gene expression, fold change over untreated control (300 µM, 24 h): 1.11 | HIF1A gene expression, fold change over untreated control (300 µM, 24 h): 1.05 | IGFR1 gene expression, fold change over untreated control (300 µM, 24 h): -1.10 | IGFR2 gene expression, fold change over untreated control (300 µM, 24 h): -1.00 | IL6 gene expression, fold change over untreated control (300 µM, 24 h): -1.51 | MRP1 gene expression, fold change over untreated control (300 µM, 24 h): 1.14 | MRP2 gene expression, fold change over untreated control (300 µM, 24 h): 1.00 | MRP3 gene expression, fold change over untreated control (300 µM, 24 h): 1.44 | NFKB1 gene expression, fold change over untreated control (300 µM, 24 h): 1.03 | NFKB2 gene expression, fold change over untreated control (300 µM, 24 h): -1.04 | NR3C1 gene expression, fold change over untreated control (300 µM, 24 h): 1.00 | PGF gene expression, fold change over untreated control (300 µM, 24 h): -1.00 | PMM1 gene expression, fold change over untreated control (300 µM, 24 h): 1.05 | ROLYR2L gene expression, fold change over untreated control (300 µM, 24 h): 1.00 | SLC2A1 gene expression, fold change over untreated control (300 µM, 24 h): -1.13 | TGFB1 gene expression, fold change over untreated control (300 µM, 24 h): 1.00 | VEGFA gene expression, fold change over untreated control (300 µM, 24 h): 1.27 | VEGFB gene expression, fold change over untreated control (300 µM, 24 h): -1.01 | WNT4 gene expression, fold change over untreated control (300 µM, 24 h): 1.20 | WNT6 gene expression, fold change over untreated control (300 µM, 24 h): -1.09 | WNT7B gene expression, fold change over untreated control (300 µM, 24 h): -1.12 | mTOR gene expression, fold change over untreated control (300 µM, 24 h): 1.00 | number of genes with significantly altered expression (of 46) (300 µM, 24 h, FDR p < 0.1): 15 genes | lowest concentration inducing significant dysregulated expression of placental genes (after 24 h of exposure): 3 µM
